Experimental data published in patent US6083985A, “Medicinal composition” (Banyu Pharmaceutical Co., Ltd., priority 1995, dated 2000).
Like-named read-outs stand apart in the source and are kept apart here.

Tests used:
[1] = system: farnesylation of Ras protein in NIH3T3 cells; test: Inhibitory effect on farnesylation of Ras protein in NIH3T3 cells into which an activated ras gene was introduced (SDS-PAGE, anti-Ras antibody, densitometry); format: cell-based; settings: for inhibitory activity on farnesylation of Ras proteins in the presence of L-654,969: in the presence of L-654,969 (0.15 μM or 5 μM)
Description: Inhibitory effect on farnesylation of Ras protein in NIH3T3 cells into which an activated ras gene was introduced, was measured by using the compounds prepared in Preparation Examples 3 and 5 as PFT inhibitors and L-654,969 (an active metabolite of simvastatin) as a hydroxymethylglutaryl CoA reductase inhibitor.
The cells were cultured for 24 hours, peeled off the plates and dissolved in accordance with the method disclosed in J. Biol. Chem., vol. 268, 18415 (1993). The cell solutions were centrifuged at 12000 g for 5 minutes, and the supernatants were used as cell extracts. The cell extracts were subjected to SDS polyacrylamide gel electrophoresis to separate the farnesylated Ras protein and the unfarnesylated Ras protein. […] After the anti-primary antibody, a peroxidaze-conjugated antibody (a secondary antibody) was allowed to react, the Ras protein was detected by mean of a chemoluminescence amplification kit. The proportion of the unfarnesylated Ras protein was determined by using a densitometer and defined as the inhibitory activity.

BMJ1 cells = test: Inhibitory activity on proliferation of transformed BMJ1 cells (SRB method); format: cell-based, mouse; settings: for IC50: Mus musculus, transformed BMJ1 cells; for 50% cell proliferation inhibitory activity in the presence of L-654,969: presence of 0.8 μM of L-654,969
Description: The BMJ1 cells which were obtained by introducing a hormone-inducible activated ras gene into BALB3T3 cells, a mouse-derived established cell line, were transformed by adding dexamethasone to the culture so as to produce an activated Ras protein. To assess the inhibitory effects of the PFT inhibitors on cell proliferation, the 50% proliferation inhibitory concentration for each compound was calculated by adding each compound to a transformed BMJ1 cell culture at various concentrations, and counting the number of cells after incubation. The cell numbers were counted in accordance with the SRB method disclosed in Proc. Am. Assoc. Cancer Res., vol.

[2] = PFT inhibitor 1 μM, L-654,969 5 μM, 24 hours
[3] = PFT inhibitor 3 μM, L-654,969 0.15 μM, 24 hours
[4] = PFT inhibitor 3 μM, L-654,969 5 μM, 24 hours
[5] = In the absence of L-654,969, read-out: 50% Proliferation inhibitory concentration (IC50 μM) In the absence of L-654,969
[6] = In the presence of 0.8 μM of L-654,969, read-out: 50% Proliferation inhibitory concentration (IC50 μM) In the presence of 0.8 μM of L-654,969

| SMILES | inhibition at 10 µM ([1]; Mus musculus, NIH3T3, PFT inhibitor 10 μM, L-654,969: None, 24 hours, read-out: Inhibitory rate (%) on farnesylation of the Ras proteins) [%] | Inhibitory rate (%) on farnesylation of the Ras proteins [1, 2] [%] | Inhibitory rate (%) on farnesylation of the Ras proteins [1, 3] [%] | Inhibitory rate (%) on farnesylation of the Ras proteins [1, 4] [%] | Inhibitory rate (%) on farnesylation of the Ras proteins ([1]; PFT inhibitor 10 μM, L-654,969 0.15 μM, 24 hours) [%] | Inhibitory rate (%) on farnesylation of the Ras proteins ([1]; PFT inhibitor 10 μM, L-654,969 5 μM, 24 hours) [%] | inhibitory activity on farnesylation of Ras proteins in the presence of L-654,969 [1] | IC50 (BMJ1 cells; [5]) [µM] | IC50 (BMJ1 cells; [6]) [µM] | 50% cell proliferation inhibitory activity in the presence of L-654,969 (BMJ1 cells) | inhibition of farnesylation of the Ras proteins by L-654,969 by itself ([1]; 0.15 μM or 5 μM, by itself) | inhibition of cell proliferation by L-654,969 alone (BMJ1 cells; 0.8 μM, alone) | inhibition at 3 µM ([1]; Mus musculus, NIH3T3, PFT inhibitor 3 μM, L-654,969: None, 24 hours, read-out: Inhibitory rate (%) on farnesylation of the Ras proteins) [%] | Inhibitory rate (%) on farnesylation of the Ras proteins ([1]; PFT inhibitor 0.3 μM, L-654,969 5 μM, 24 hours) [%] | Inhibitory rate (%) on farnesylation of the Ras proteins ([1]; PFT inhibitor 1 μM, L-654,969 0.15 μM, 24 hours) [%] |
| --- | --- | --- | --- | --- | --- | --- | --- | --- | --- | --- | --- | --- | --- | --- | --- |
| C[C@H]([C@H](C/C=C/c1nc2ccccc2o1)c1ccc2c(c1)OCO2)N(Cc1ccc2ccccc2c1)C(=O)CC(CC(=O)O)(C(=O)O)C(=O)O (racemic) [Preparation Example 3, 3-[N-{(1RS,2RS,4E)-5-(2-benzoxazolyl)-1-methyl-2-(3,4-methylenedioxyphenyl)-4-pentenyl}-N-(2-naphthylmethyl)carbamoyl]-1,2,2-propanetricarboxylic acid] | 32 | 55 | 27 | 88 | 67 | 90 | increased synergically and concentration-dependently | 130 | 11 | increased synergecally and concentration-dependently |  |  |  |  |  |
| C[C@H]([C@H](C/C=C/c1nc2ccccc2o1)c1ccc2c(c1)OCO2)N(Cc1ccc2ccccc2c1)C(=O)[C@H](O)[C@@H](CC(=O)[O-])C(=O)[O-].[Na+].[Na+] (racemic) [Preparation Example 4, disodium (3RS,4RS)-4-[N-{(1RS,2RS,4E)-5-(2-benzoxazolyl)-1-methyl-2-(3,4-methylenedioxyphenyl)-4-pentenyl}-N-(2-naphthylmethyl)carbamoyl]-3-carboxylato-4-hydroxybutanoate] |  |  |  |  |  |  |  | 105 | 6.5 | increased synergecally and concentration-dependently |  |  |  |  |  |
| CCC(C)(C)C(=O)O[C@H]1C[C@@H](C)C=C2C=C[C@H](C)[C@H](CC[C@@H](O)C[C@@H](O)CC(=O)O)[C@H]21 [L-654,969, reference compound] |  |  |  |  |  |  |  |  |  |  | does not inhibit farnesylation of the Ras proteins | does not inhibit cell proliferation alone |  |  |  |
| C[C@H]([C@H](C/C=C/c1nc2ccccc2o1)c1ccc2c(c1)OCO2)N(Cc1ccc2ccccc2c1)C(=O)C(O)=C(CC(=O)O)C(=O)OC(C)(C)C [Preparation Example 5, 4-[N-{(1R,2R,4E)-5-(2-benzoxazolyl)-1-methyl-2-(3,4-methylenedioxyphenyl)-4-pentenyl}-N-(2-naphthylmethyl)carbamoyl]-3-tert-butoxycarbonyl-4-hydroxy-3-butenoic acid] |  | 86 | 72 | 95 |  |  | increased synergically and concentration-dependently | 3.1 | 0.93 | increased synergecally and concentration-dependently |  |  | 32 | 43 | 18 |
